Earlier results, collected in patent US20200383964A1, “MITOCHONDRIA TARGETING, MPTP REGULATION, AND THE REDUCTION OF MITOCHONDRIAL REACTIVE SPECIES” (priority 2017, published 2020).

System: mitochondrial permeability transition pore (MPTP)

CC(=O)C=O [Methylglyoxal, methylglyoxal]
suppression of permeability transition (incubation with isolated mitochondria, covalent binding to the MPTP): complete suppression
time to suppression of the permeability transition (isolated mitochondria): ≤ 5 min
